Legend:
[1] = tested on: Bel-7402; assay: Antitumor activity against human Bel7402 cells assessed as induction of cell death after 48 hrs by MTT assay; type: functional, cell-based; details: Bel-7402, 48 h
[2] = tested on: K562; assay: Antitumor activity against human K562 cells assessed as induction of cell death after 48 hrs by MTT assay; type: functional, cell-based; details: K562, 48 h

| SMILES | IC50 [1] | IC50 [2] |
| --- | --- | --- |
| C/C(=N\N=C(\N)S)c1cnccn1 | 238 µM | 47.5 µM |
| C/N=C(\S)N/N=C(\C)c1cnccn1 | 462 µM | 25.9 µM |
| NC(=S)N/N=C(\c1ccccc1)c1ccccn1 | 376 µM | 28.2 µM |
| CNC(=S)N/N=C(\c1ccccc1)c1ccccn1 | 0.138 µM | 0.002 µM |

Source: ChEMBL document CHEMBL1151880, “Cytotoxicity and structure-activity relationships of four alpha-N-heterocyclic thiosemicarbazone derivatives crystal structure of 2-acetylpyrazine thiosemicarbazone” (Bioorg Med Chem Lett, 2009)
